Among the targets are AAK1 (Homo sapiens (Human), UniProt Q2M2I8); CAMK1 (Homo sapiens (Human), UniProt Q14012); CDC2L2 (Homo sapiens (Human), UniProt Q9UQ88); CDK4 (Homo sapiens (Human), UniProt P11802); CSNK2A2 (Homo sapiens (Human), UniProt P19784); EGFR(G719C) (Homo sapiens (Human), UniProt P00533, G719C); FER (Homo sapiens (Human), UniProt P16591); FES (Homo sapiens (Human), UniProt P07332); ICK (Homo sapiens (Human), UniProt Q9UPZ9); MAP3K1 (Homo sapiens (Human), UniProt Q13233); NEK11 (Homo sapiens (Human), UniProt Q8NG66); PLK4 (Homo sapiens (Human), UniProt O00444); PRKCI (Homo sapiens (Human), UniProt P41743); PRKCQ (Homo sapiens (Human), UniProt Q04759); PRKG1 (Homo sapiens (Human), UniProt Q13976); RIOK3 (Homo sapiens (Human), UniProt O14730).

Assay in all cases: Kinase binding screen
What all share (details): read-out: Percent Control at 100 nM Compound Concentration

Assay [1] concerns the target JAK2(JH1domain-catalytic) (Homo sapiens (Human), UniProt O60674).
Another assay addresses CDC2L5 (Homo sapiens (Human), UniProt Q14004). An excerpt: (§1) The screening method uses an immobilized ligand on a solid support, a DNA-tagged kinase, and a test compound. Test compounds that bind the kinase active site and directly (sterically) or indirectly (allosterically) prevent kinase binding to an immobilized ligand on a solid support will reduce the amount of kinase captured on the solid support. […] Screening “hits” are identified by measuring the amount of kinase captured in test compound versus control samples by using a quantitative, precise and ultra-sensitive qPCR method that detects the DNA label associated with the kinase. In a similar manner, dissociation constants (Kd) for test compound-kinase interactions are calculated by measuring the amount of kinase captured on the solid support as a function of the test compound concentration.
(§2) For most assays, kinase-tagged T7 phage strains were grown in parallel in 24-well blocks in an E. coli host derived from the BL21 strain. E. coli were grown to log-phase and infected with T7 phage from a frozen stock (multiplicity of infection=0.4) and incubated with shaking at 32° C. until lysis (90-150 minutes). The lysates were centrifuged (6,000×g) and filtered ([…]) to remove cell debris. The remaining kinases were produced in HEK-293 cells and subsequently tagged with DNA for qPCR detection. Streptavidin-coated magnetic beads were treated with biotinylated small molecule ligands for 30 minutes at room temperature to generate affinity resins for kinase assays. The liganded beads were blocked with excess biotin and washed with blocking buffer (SeaBlock (Pierce), 1% BSA, 0.05% Tween 20, 1 mM DTT) to remove unbound ligand and to reduce non-specific phage binding. […] Test compounds were prepared as 40× stocks in 100% DMSO and directly diluted into the assay. All reactions were performed in polypropylene 384-well plates in a final volume of 0.02 mL. […] The kinase concentration in the eluates was measured by qPCR.
(§3) The compounds were screened at 100 nM concentration, and results for the binding interactions are shown below in Table D as percent control, where lower numbers indicate stronger hits. The calculation for percent control is shown below. The negative control was DMSO (100% control), and a control compound was used as positive control (0% control).

In a further assay the target is PFCDPK1(P.falciparum) (Plasmodium falciparum (isolate 3D7), UniProt P62344).
Text: as §1, §2, §3

The next assay deals with PFPK5(P.falciparum) (Plasmodium falciparum (isolate 3D7), UniProt P61075).
Text: as §1, §2, §3

The next assay has as its target PRP4 (Homo sapiens (Human), UniProt Q13523).
Text: as §1, §2, §3

Assay [2] addresses RSK2(Kin.Dom.2-C-terminal) (Homo sapiens (Human), UniProt P51812).

Results on two compounds are retold here after patent US11767310B2, “Nicotinamide RIPK1 inhibitors” (AbbVie Inc., priority 2021, dated 2023).

Where two headings read alike, the source gives them in different places.

Sequence of CAMK1 (Q14012 whole entry): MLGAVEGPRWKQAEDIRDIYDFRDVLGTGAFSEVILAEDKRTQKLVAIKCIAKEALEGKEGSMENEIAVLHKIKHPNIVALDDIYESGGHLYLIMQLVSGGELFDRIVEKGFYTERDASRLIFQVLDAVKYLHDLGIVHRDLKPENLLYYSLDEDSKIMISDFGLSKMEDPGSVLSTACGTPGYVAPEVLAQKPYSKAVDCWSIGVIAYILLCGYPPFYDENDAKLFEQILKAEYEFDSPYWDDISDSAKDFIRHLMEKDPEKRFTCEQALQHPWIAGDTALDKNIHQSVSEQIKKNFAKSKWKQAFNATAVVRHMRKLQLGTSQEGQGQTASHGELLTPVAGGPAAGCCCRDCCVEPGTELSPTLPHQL
Sequence of JAK2(JH1domain-catalytic) (O60674 849-1124): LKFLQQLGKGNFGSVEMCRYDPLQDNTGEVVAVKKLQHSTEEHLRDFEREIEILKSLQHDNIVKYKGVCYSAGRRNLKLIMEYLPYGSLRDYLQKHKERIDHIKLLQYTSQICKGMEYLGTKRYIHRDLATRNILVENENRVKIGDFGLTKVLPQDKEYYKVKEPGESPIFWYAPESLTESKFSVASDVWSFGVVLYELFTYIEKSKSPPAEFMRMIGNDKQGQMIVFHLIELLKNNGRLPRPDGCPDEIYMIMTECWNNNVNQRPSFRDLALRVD
Sequence of ICK (Q9UPZ9 whole entry): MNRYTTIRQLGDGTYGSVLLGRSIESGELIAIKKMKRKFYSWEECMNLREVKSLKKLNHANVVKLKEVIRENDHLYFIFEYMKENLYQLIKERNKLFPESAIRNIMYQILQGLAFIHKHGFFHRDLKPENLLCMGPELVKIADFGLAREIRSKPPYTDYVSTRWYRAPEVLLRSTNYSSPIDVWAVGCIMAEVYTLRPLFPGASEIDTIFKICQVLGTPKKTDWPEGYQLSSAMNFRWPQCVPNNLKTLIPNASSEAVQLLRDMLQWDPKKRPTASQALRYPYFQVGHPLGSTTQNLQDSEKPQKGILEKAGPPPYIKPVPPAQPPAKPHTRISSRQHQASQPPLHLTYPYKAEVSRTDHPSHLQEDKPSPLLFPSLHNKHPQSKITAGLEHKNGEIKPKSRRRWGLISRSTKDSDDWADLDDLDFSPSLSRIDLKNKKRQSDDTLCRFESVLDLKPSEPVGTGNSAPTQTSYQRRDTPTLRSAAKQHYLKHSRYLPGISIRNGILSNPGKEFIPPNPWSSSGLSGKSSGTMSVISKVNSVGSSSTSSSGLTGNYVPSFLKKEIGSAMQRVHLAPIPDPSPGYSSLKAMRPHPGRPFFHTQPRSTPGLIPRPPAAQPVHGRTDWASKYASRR
Sequence of RIOK3 (O14730 whole entry): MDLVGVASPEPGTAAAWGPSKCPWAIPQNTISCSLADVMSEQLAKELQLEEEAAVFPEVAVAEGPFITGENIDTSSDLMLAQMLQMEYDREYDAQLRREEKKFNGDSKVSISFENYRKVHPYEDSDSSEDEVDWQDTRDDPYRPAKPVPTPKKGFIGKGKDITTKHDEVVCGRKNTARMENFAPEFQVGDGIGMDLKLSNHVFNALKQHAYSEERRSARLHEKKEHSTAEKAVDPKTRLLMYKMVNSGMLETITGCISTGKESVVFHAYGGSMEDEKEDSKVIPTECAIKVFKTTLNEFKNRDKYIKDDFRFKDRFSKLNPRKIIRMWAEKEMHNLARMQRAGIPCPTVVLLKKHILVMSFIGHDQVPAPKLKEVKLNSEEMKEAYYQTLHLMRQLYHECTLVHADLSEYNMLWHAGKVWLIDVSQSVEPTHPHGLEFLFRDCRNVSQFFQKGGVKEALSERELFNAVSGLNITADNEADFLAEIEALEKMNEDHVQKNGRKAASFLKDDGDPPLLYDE
Sequence of PLK4 (O00444 whole entry): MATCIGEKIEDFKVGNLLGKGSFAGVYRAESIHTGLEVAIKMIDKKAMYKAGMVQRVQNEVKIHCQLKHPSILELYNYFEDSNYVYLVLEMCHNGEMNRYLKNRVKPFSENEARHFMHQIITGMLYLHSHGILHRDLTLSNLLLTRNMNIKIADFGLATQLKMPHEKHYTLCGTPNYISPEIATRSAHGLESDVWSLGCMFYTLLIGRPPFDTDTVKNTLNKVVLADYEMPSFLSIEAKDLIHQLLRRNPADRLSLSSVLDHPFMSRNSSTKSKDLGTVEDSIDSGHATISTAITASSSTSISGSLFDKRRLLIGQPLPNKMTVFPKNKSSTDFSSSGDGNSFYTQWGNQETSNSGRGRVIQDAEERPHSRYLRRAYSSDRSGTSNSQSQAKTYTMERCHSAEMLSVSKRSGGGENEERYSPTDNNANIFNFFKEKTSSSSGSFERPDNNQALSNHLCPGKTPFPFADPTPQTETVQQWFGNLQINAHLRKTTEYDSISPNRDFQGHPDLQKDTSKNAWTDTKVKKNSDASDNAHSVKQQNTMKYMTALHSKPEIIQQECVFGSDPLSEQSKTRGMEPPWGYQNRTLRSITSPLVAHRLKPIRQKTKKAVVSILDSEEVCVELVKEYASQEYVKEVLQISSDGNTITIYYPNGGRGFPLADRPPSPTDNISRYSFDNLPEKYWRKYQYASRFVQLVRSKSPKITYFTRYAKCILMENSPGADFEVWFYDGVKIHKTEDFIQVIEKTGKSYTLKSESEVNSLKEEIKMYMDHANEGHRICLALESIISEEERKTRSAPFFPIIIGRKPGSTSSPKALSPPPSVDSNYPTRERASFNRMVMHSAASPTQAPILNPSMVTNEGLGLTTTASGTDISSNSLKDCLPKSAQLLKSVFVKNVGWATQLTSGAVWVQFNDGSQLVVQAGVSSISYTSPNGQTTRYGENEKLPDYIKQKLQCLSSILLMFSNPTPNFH
Sequence of PRKCI (P41743 whole entry): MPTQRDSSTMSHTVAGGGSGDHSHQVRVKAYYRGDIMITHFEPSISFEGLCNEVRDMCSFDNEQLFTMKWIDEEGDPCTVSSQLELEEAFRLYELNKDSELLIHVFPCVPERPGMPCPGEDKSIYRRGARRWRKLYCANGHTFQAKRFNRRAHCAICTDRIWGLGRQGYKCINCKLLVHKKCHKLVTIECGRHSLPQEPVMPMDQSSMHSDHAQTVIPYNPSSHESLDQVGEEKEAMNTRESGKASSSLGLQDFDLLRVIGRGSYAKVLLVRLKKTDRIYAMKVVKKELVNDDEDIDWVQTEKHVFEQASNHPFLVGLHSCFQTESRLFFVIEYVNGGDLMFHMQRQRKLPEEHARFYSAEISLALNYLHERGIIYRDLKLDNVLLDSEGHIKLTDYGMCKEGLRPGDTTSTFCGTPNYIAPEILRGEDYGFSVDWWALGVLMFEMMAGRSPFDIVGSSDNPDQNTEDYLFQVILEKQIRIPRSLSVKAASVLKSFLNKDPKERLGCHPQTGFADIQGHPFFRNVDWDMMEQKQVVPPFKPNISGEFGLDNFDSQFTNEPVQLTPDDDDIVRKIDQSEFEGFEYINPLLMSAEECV
Sequence of PRKCQ (Q04759 whole entry): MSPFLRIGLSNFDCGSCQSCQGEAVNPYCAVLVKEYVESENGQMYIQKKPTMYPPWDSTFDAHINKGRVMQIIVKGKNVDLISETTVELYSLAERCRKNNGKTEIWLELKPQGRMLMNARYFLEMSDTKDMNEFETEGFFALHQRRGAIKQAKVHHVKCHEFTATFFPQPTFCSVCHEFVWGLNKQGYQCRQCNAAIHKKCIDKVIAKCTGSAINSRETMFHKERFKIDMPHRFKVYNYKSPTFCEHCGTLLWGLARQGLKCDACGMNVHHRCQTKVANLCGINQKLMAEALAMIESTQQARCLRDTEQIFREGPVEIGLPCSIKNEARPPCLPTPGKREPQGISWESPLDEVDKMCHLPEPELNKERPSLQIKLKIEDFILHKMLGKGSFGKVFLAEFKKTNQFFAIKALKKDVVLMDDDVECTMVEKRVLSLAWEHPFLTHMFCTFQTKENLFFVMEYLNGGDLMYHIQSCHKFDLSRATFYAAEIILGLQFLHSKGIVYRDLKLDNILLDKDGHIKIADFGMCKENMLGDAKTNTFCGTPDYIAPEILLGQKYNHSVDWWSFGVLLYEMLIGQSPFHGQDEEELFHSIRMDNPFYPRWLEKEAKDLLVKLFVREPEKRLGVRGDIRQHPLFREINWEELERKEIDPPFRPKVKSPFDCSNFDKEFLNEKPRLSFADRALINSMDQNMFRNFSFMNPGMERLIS
Sequence of NEK11 (Q8NG66 whole entry): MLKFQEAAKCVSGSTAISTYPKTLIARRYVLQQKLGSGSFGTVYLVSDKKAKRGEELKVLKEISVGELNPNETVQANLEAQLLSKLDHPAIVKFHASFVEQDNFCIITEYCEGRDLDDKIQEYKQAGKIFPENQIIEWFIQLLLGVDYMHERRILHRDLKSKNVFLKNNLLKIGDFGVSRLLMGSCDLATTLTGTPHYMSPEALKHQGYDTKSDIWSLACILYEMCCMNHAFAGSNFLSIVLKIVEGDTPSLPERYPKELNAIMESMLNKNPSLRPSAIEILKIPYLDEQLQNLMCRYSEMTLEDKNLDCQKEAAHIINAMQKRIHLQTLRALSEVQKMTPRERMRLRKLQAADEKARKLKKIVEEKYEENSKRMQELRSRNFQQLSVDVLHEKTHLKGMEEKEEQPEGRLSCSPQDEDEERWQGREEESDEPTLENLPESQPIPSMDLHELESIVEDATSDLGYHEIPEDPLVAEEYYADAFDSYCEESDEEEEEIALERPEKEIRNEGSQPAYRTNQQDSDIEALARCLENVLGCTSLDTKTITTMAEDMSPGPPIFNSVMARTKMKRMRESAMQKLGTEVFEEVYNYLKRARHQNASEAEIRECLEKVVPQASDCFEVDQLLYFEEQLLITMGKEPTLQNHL
Sequence of RSK2(Kin.Dom.2-C-terminal) (P51812 422-679): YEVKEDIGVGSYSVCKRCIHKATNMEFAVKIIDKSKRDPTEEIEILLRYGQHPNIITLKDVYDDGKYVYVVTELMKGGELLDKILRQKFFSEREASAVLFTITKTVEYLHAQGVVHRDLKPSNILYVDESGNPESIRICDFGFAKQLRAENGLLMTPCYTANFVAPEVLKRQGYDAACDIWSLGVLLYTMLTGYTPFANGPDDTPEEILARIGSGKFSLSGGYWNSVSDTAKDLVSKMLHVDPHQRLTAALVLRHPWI

For `CN(C[C@H](Cc1ccccc1)OP(=O)(O)O)C(=O)c1cncc(C#Cc2cnn(C(F)F)c2)c1` [Example 19, (S)-1-(5-((1-(difluoromethyl)-1H-pyrazol-4-yl)ethynyl)-N-methylnicotinamido)-3-phenylpropan-2-yl dihydrogen phosphate], the remaining activity at 0.1 µM was 100% at AAK1; 62% at CAMK1; 100% at CDC2L2; 93% at CDK4; 100% on CSNK2A2; 77% at EGFR(G719C). Also, the remaining activity at 0.1 µM stood at 96% on FER; 100% at FES; 93% at ICK; 100% in assay [1]; 100% at MAP3K1; 95% on NEK11. In addition, the remaining activity at 0.1 µM came out at 100% on CDC2L5; 96% on PFCDPK1(P.falciparum); 100% at PFPK5(P.falciparum); 82% at PRP4; 100% on PLK4; 92% at PRKCI. The remaining activity at 0.1 µM at PRKCQ turned out to be 98%; on PRKG1 it was 100%; on RIOK3, 100%; in [2], 100%.

Consider `CN(C[C@@H](O)Cc1ccccc1)C(=O)c1cncc(C#Cc2cnn(C(F)F)c2)c1` [Example 2, (S)-5-((1-(difluoromethyl)-1H-pyrazol-4-yl)ethynyl)-N-(2-hydroxy-3-phenylpropyl)-N-methylnicotinamide], for which the remaining activity at 0.1 µM at AAK1 (AAK1) is 96%; at CAMK1 (CAMK1), 100%; on CDC2L2 (CDC2L2), 100%; on CDK4 (CDK4) it was 100%; on CSNK2A2 (CSNK2A2), 100%; at EGFR(G719C) (EGFR(G719C)) it was 100%. In addition, the remaining activity at 0.1 µM (at FER (FER); on FES (FES); at ICK (ICK); in assay [1] (JAK2(JH1domain-catalytic)); on MAP3K1 (MAP3K1); on NEK11 (NEK11)) was 100% each time. In addition, the remaining activity at 0.1 µM was 100% on CDC2L5; 95% at PFCDPK1(P.falciparum); 90% on PFPK5(P.falciparum); 89% on PRP4; 100% at PLK4 (PLK4); 96% on PRKCI (PRKCI). In addition, the remaining activity at 0.1 µM at PRKCQ (PRKCQ) is 94%; on PRKG1 (PRKG1), 92%; on RIOK3 (RIOK3), 100%; in [2] (RSK2(Kin.Dom.2-C-terminal)) it was 100%.
